For orientation: IC50 means the concentration needed to halve the response being measured.

The record followed here is patent US20150011751A1, “NOVEL TRIAZINE DERIVATIVE” (CARNA BIOSCIENCES, INC., priority 2012, published 2015).

Assay [1] relates to intracellular BTK (pY223) in Ramos cells. The assay can be described thus: cells. The conditions noted are these: Homo sapiens, read-out: BTK phosphorylation inhibitory activity.
Assay [2] has the same test system. Nature of the assay: Inhibition of self-phosphorylation activity of intracellular BTK in IgM-stimulated Ramos cells (Western blot, Test Example 3-1). The format is cell-based. The settings on record: test compound 1 μM, 1 hour, IgM 10 μg/mL 10 minutes. The text has this:
Combinations of primary antibody and secondary antibody as well as dilute concentrations used in the present test are as follows.

A further assay concerns the target Dephosphorylated BTK (Homo sapiens, UniProt Q06187). The assay can be described thus: Test of activity inhibition against dephosphorylated BTK (mobility shift assay).
The target of the next assay is BTK (Homo sapiens, UniProt Q06187). Nature of the assay: Test of activity inhibition against BTK (mobility shift assay, QuickScout Screening Assist MSA).
Chain of BTK (Q06187 whole entry): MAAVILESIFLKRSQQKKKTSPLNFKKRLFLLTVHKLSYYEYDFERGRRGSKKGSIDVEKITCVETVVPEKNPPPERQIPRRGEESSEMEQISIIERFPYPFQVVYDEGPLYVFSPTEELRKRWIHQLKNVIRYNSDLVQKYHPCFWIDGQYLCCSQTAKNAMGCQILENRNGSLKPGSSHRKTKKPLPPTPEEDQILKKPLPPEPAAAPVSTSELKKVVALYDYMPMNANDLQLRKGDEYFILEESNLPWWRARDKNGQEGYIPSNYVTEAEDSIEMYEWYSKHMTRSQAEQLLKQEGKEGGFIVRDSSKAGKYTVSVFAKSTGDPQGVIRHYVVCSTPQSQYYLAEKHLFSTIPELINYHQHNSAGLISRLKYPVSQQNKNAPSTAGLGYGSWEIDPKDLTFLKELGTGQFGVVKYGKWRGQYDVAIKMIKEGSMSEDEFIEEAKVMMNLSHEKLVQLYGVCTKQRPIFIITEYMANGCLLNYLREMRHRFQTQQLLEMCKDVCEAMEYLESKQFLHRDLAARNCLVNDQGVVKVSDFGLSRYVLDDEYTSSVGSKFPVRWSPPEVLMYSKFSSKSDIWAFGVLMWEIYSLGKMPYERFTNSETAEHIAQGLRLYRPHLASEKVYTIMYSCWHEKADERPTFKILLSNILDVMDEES
For assay [3], the system named is intracellular BTK (pY223) in Ramos cells. The settings on record: test compound 0.3 μM, 1 hour, IgM 10 μg/mL 10 minutes.
Procedure: The supernatant was recovered by a centrifugal operation (at 15,000 rpm for 15 minutes) and the amount of protein was quantitatively determined. The supernatant was mixed with SDS-sample buffer and the mixture was reacted at 95° C. for 5 minutes thereby modifying the protein to obtain a sample solution. […] Thereafter, the protein in the gel was transferred to a PVDF membrane, using an iBlot gel transfer system (Life Technologies Corporation).
The unreacted secondary antibody was washed with TBST buffer and reacted according to the attached protocol, using ECL Prime Western Blotting Detection System (GE Healthcare Ltd.), and then each band was detected by chemiluminescence using a CCD camera (ATTO, Light-CaptureII). The detected band was digitized by densitometry (ATTO CS Analyzer ver.3.0) and an inhibition ratio was calculated from the intensity of a band in each group on the assumption that luminescence of a band of phosphorylated BTK of the compound no-addition and IgM stimulated group is 100%, whereas, luminescence of a band of phosphorylated BTK of the compound no-addition and IgM non-stimulated group is 0%. Each band of phosphorylated BTK was corrected by the total BTK.
Thereafter, IgM (Invitrogen, H15100) diluted with the medium was added so that the final concentration becomes 10 μg/mL, followed by incubation at 37° C. for 10 minutes.
The intracellular BTK autophosphorylation inhibiting activity was indicated with the mark “***” when 70% or more, with the mark “**” when 50% or more and less than 70%, and with the mark “*” when 30% or more and less than 50%.

Chain of Dephosphorylated BTK (Q06187 whole entry): as above

`COc1cc(Nc2ncnc(-c3cccc(NC(=O)c4ccc(C(C)(C)C)cc4)c3C)n2)cc(OC)c1OC` [Example 1, 4-(tert-Butyl)-N-(2-methyl-3-[4-[(3,4,5-trimethoxyphenyl)amino]-1,3,5-triazin-2-yl]phenyl)benzamide]: the inhibition at 0.3 µM in assay [1] was more than 70%. Also, the “BTK phosphorylation inhibition ratio” value in assay [2] turned out to be 107%. The values for the IC50 on Dephosphorylated BTK and at BTK were 2.1 nM and 10 nM, respectively.
Consider `Cc1c(NC(=O)c2ccc(C(C)(C)C)cc2)cccc1-c1ncnc(Nc2ccc(C(=O)N3CCN(C)CC3)cc2)n1` [Example 4, 4-(tert-Butyl)-N-[2-methyl-3-(4-{[4-(4-methylpiperazine-1-carbonyl)phenyl]amino}-1,3,5-triazin-2-yl)phenyl]benzamide], for which the IC50 at Dephosphorylated BTK is 4.2 nM; at BTK, 10 nM.
The corresponding values for `Cc1c(NC(=O)c2ccc(C(C)(C)C)cc2)cccc1-c1ncnc(Nc2ccc(C(=O)N3CCOC(CN)C3)cc2)n1` (stereo not drawn) [Example 7, N-{3-[4-({4-[2-(Amino-methyl)morpholine-4-car-bonyl]phenyl}amino)-1,3,5-triazin-2-yl]-2-methylphenyl}-4-(tert-butyl)benzamide] are 2.5 nM and 8.2 nM.
For `Cc1c(NC(=O)c2ccc(C(C)(C)C)cc2)cccc1-c1ncnc(Nc2ccc(C(=O)NCCN3CCOCC3)cc2)n1` [Example 8, 4-(tert-Butyl)-N-{2-meth-yl-3-[4-({4-[(2-morpho-linoethyl)carbamoyl]phenyl}amino)-1,3,5-triazin-2-yl]phenyl} benzamide], the 50% inhibitory concentration (IC50) on Dephosphorylated BTK came out at 3.5 nM; on BTK it was 13.1 nM.
Take `Cc1c(NC(=O)c2ccc(C(C)(C)C)cc2)cccc1-c1ncnc(Nc2ccc(C(=O)N3CCC(O)CC3)cc2)n1` [Example 9, 4-(tert-Butyl)-N-[3-(4-{[4-(4-hydroxypiper-idine-1-carbonyl)phenyl]amino}-1,3,5-triazin-2-yl)-2-methylphen-yl]benzamide]: the half-inhibitory concentration (IC50) at Dephosphorylated BTK turned out to be 2.1 nM; on BTK it was 12.6 nM.
The corresponding values for `Cc1c(NC(=O)c2ccc(C(C)(C)C)cc2)cccc1-c1ncnc(Nc2ccc(C(=O)N3CCN(CCO)CC3)cc2)n1` [Example 10, 4-(tert-Butyl)-N-{3-[4-({4-[4-(2-hydroxyeth-yl)piperazine-1-carbo-nyl]phenyl}amino)-1,3,5-triazin-2-yl]-2-meth-ylphenyl}benzamide] are 3.2 nM and 12.8 nM.
`Nc1nc(Nc2ccc(N3CCOCC3)cc2)nc(-c2cccc(N3CCc4cc(C5CC5)cc(F)c4C3=O)c2CO)n1` [Example 44, 2-(3-{4-Amino-6-[(4-morpholinophenyl)amino]-1,3,5-triazin-2-yl}-2-(hydroxymethyl)phenyl)-6-cycropropyl-8-fluoro-3,4-dihydroisoquinolin-1(2H)-one]: the “BTK phosphorylation inhibitory activity” value in assay [3] is recorded as “*** (70% or more)”.
